In the experiment the target is SARS‐CoV‐2 RdRp complex (nsp12, nsp7, nsp8) (Severe acute respiratory syndrome coronavirus 2, UniProt P0DTD1). Put plainly: Fluorescence-based RdRp polymerase assay (SYBR Green I RNA extension). The format is biochemical. As to conditions: for residual activity (RA) of the SARS‐CoV‐2 RdRp complex: 10 μM screening, AUC with compound / AUC of non-inhibited reaction x 100; for remaining activity at 10 µM: 50 min, read-out: residual activity (RA) of the SARS‐CoV‐2 RdRp complex.

Regarding “1‐(3,5‐Dichlorophenyl)‐3‐(3‐(Trifluoromethyl)phenyl)guanidine Hydrochloride [Compound 54]”, the “residual activity (RA) of the SARS‐CoV‐2 RdRp complex” value (from here on “residual activity (RA)”) is reported as 100%. For the molecule “3,4‐Dichloro‐N‐(6‐(Trifluoromethyl)‐1H‐Benzo[d]imidazol‐2‐yl)benzamide [Compound 57]”, the “residual activity (RA)” value is on record as 100%.

With `CCCCNC(=O)Nc1cc(C(=O)OC)cc(C(=O)OC)c1` [Compound 5, Dimethyl 5‐(3‐Butylureido)isophthalate], the remaining activity at 10 µM amounted to 100%. As for `COC(=O)c1cc(NC(=O)Nc2cccc(C#N)c2)cc(C(=O)OC)c1` [Compound 6, Dimethyl 5‐(3‐(3‐Cyanophenyl)ureido)isophthalate], the remaining activity at 10 µM was found to be 100%. As to `COC(=O)c1cc(NC(=O)Nc2ccc(C#N)cc2)cc(C(=O)OC)c1` [Compound 7, Dimethyl 5‐(3‐(4‐Cyanophenyl)ureido)isophthalate], the remaining activity at 10 µM turned out to be 100%.

Take `COC(=O)c1cc(NC(=O)Nc2ccc(S(N)(=O)=O)cc2)cc(C(=O)OC)c1` [Compound 8, Dimethyl 5‐(3‐(4‐Sulfamoylphenyl)ureido)isophthalate]: the remaining activity at 10 µM is 100%. For `CCOC(=O)c1cccc(NC(=O)Nc2cc(C(=O)OC)cc(C(=O)OC)c2)c1` [Compound 10, Dimethyl 5‐(3‐(3‐(Ethoxycarbonyl)phenyl)ureido)isophthalate], the remaining activity at 10 µM came to 100%. The same measure, in the same setting: the result for `COC(=O)c1cc(NC(=O)Nc2cc([N+](=O)[O-])cc([N+](=O)[O-])c2)cc(C(=O)OC)c1` [Compound 12, Dimethyl 5‐(3‐(3,5‐Dinitophenyl)ureido)isophthalate] reads 100%. On to `COC(=O)c1cc(NC(=O)Nc2cccc(C(=O)O)c2)cc(C(=O)OC)c1` [Compound 13, 3‐(3‐(3,5‐Bis(methoxycarbonyl)phenyl)ureido)benzoic Acid], for which the remaining activity at 10 µM is 100%. On to `COC(=O)c1cc(NC(=O)Nc2ccncc2)cc(C(=O)OC)c1` [Compound 14, Dimethyl 5‐(3‐(Pyridin‐4‐yl)ureido)isophthalate], for which the remaining activity at 10 µM worked out at 100%. Still for that read-out and setting: the result for `COC(=O)c1cc(NC(=O)Nc2cccc([N+](=O)[O-])c2)cc(C(=O)OC)c1` [Compound 17, Dimethyl 5‐(3‐(3‐Nitrophenyl)ureido)isophthalate] reads 51%. Turning to `O=C(Nc1cccc([N+](=O)[O-])c1)Nc1cccc([N+](=O)[O-])c1` [Compound 18, 1,3‐Bis(3‐nitrophenyl)urea], the remaining activity at 10 µM was 100%. As to `COC(=O)c1cc(NC(=O)Nc2cccc([N+](=O)[O-])c2)cc(C(=O)O)c1` [Compound 20, 3‐(Methoxycarbonyl)‐5‐(3‐(3‐Nitrophenyl)ureido)benzoic Acid], the “residual activity (RA)” value is recorded as “complete loss of activity” and the remaining activity at 10 µM turned out to be 100%. Regarding `O=C(Nc1cc(C(=O)O)cc(C(=O)O)c1)Nc1cccc([N+](=O)[O-])c1` [Compound 21, 5‐(3‐(3‐Nitrophenyl)ureido)isophthalic acid], the “residual activity (RA)” value was “complete loss of activity” and the remaining activity at 10 µM was determined as 100%. As to `COC(=O)c1cc(NC(=O)Nc2ccc([N+](=O)[O-])cc2)cc(C(=O)OC)c1` [Compound 22], the remaining activity at 10 µM came to 50%. Consider `COC(=O)c1cc(NC(=O)Nc2ccccc2)cc(C(=O)OC)c1` [Compound 23], for which the remaining activity at 10 µM was found to be 100%. The same measure, in the same setting: the result for `COC(=O)c1cc(NC(=O)Nc2ccc(C)cc2)cc(C(=O)OC)c1` [Compound 25] reads 100%. The same measure, in the same setting: the result for `COC(=O)c1cc(NC(=O)Nc2cccc(F)c2)cc(C(=O)OC)c1` [Compound 26] reads 100%.

`COc1ccc(NC(=O)Nc2cc(C(=O)OC(C)C)cc(C(=O)OC(C)C)c2)c(OC)c1` [Compound 27]: the remaining activity at 10 µM worked out at 100%. On the same count and under the same terms, the result for `CC(=O)c1cccc(NC(=O)Nc2cc(C(=O)OC(C)C)cc(C(=O)OC(C)C)c2)c1` [Compound 28] reads 100%; that for `O=C(Nc1cccc([N+](=O)[O-])c1)Nc1ccc(Cl)c(C(F)(F)F)c1` [Compound 29], 58%; that for `O=C(Nc1cccc([N+](=O)[O-])c1)Nc1ccc2ccccc2c1` [Compound 30], 73%.

Regarding `O=C(Nc1cccc([N+](=O)[O-])c1)Nc1ccccc1Cc1ccccc1` [Compound 31], the remaining activity at 10 µM is 78%. Still for that read-out and setting: the result for `O=C(Nc1ccc(C(F)(F)F)cc1)Nc1cccc([N+](=O)[O-])c1` [Compound 32] reads 100%; that for `O=C(Nc1ccc(Cl)cc1)Nc1cccc([N+](=O)[O-])c1` [Compound 33], 100%; that for `O=C(Nc1ccc(C(=O)O)cc1)Nc1cccc([N+](=O)[O-])c1` [Compound 34], 100%. The same measure, in the same setting: the result for `CCNS(=O)(=O)c1ccc(NC(=O)Nc2cccc([N+](=O)[O-])c2)cc1` [Compound 35] reads 100%. The same measure, in the same setting: the result for `COC(=O)c1ccc(C(=O)OC)c(NC(=O)Nc2cccc([N+](=O)[O-])c2)c1` [Compound 36] reads 100%. In the case of `CC(=O)Nc1cccc(NC(=O)Nc2cccc([N+](=O)[O-])c2)c1` [Compound 37], the remaining activity at 10 µM came out at 100%. The same measure, in the same setting: the result for `COc1cc(NC(=O)Nc2cccc([N+](=O)[O-])c2)cc(OC)c1` [Compound 38] reads 100%; that for `O=C(Nc1cccc([N+](=O)[O-])c1)Nc1cnccn1` [Compound 39], 100%.

For `O=C(Nc1cccc([N+](=O)[O-])c1)NC1CC1` [Compound 40], the remaining activity at 10 µM stood at 100%. On the same count and under the same terms, the result for `O=C(Nc1ccc([N+](=O)[O-])cc1)Nc1cc(Cl)cc(Cl)c1` [Compound 41] reads 40%; that for `O=C(Nc1ccc([N+](=O)[O-])cc1)Nc1ccccc1Cc1ccccc1` [Compound 42], 63%; that for `O=[N+]([O-])c1cccc(NC(=S)Nc2ccc(Cl)c(C(F)(F)F)c2)c1` [Compound 43], 77%. Still for that read-out and setting: the result for `O=[N+]([O-])c1cccc(NC(=S)Nc2ccccc2Cc2ccccc2)c1` [Compound 44] reads 100%; that for `O=C(Cc1ccc([N+](=O)[O-])cc1)Nc1cc(Cl)cc(Cl)c1` [Compound 49, N‐(3,5‐Dichlorophenyl)‐2‐(4‐Nitrophenyl)acetamide], 100%.

Take `O=C(Cc1cc(Cl)cc(Cl)c1)Nc1ccc([N+](=O)[O-])cc1` [Compound 52, 2‐(3,5‐Dichlorophenyl)‐N‐(4‐Nitrophenyl)acetamide]: the remaining activity at 10 µM came to 100%. On the same count and under the same terms, the result for `O=C(Nc1cc(Cl)cc(Cl)c1)C(=O)Nc1cccc(C(F)(F)F)c1` [Compound 53, N ^1‐(3,5‐Dichlorophenyl)‐N ^2‐(3‐(Trifluoromethyl)phenyl)oxalamide] reads 100%; that for `O=C(Nc1cc(Cl)cc(Cl)c1)c1nc2ccc(C(F)(F)F)cc2[nH]1` [Compound 58, N‐(3,5‐Dichlorophenyl)‐6‐(Trifluoromethyl)‐1H‐Benzo[d]imidazole‐2‐Carboxamide], 100%.

(Values after article PMC11617668, “Developing Allosteric Inhibitors of SARS‐CoV‐2 RNA‐Dependent RNA Polymerase” (Chemmedchem, 2024).)
